Results from patent publication US11147790B2, “Treatment of cutaneous disorders” (Verrica Pharmaceuticals Inc., priority 2017, dated 2021).
Values joined by “and” are separate entries in the source; they are usually repeats but may differ in a detail not shown here. Identical values can stand only once.

Assay: Phase II clinical trial, systemic exposure evaluation (plasma concentration of cantharidin) after topical application to Molluscum contagiosum lesions
Format: in vivo, human
Method: This example describes pharmacokinetic results from a Phase II clinical trial for the treatment of skin lesion resulting from Molluscum contagiosum. Patients received administrations of the cantharidin composition in Table 9 to Molluscum contagiosum lesions every 21 days for a maximum of 4 sessions or until complete clearance. Blood samples for systemic exposure evaluation were collected on Day 1, prior to the drug application, and 2 (+30 minutes), 6 (+1 hour) and 24 (±3 hours) hours post-application. The average age of the subjects was 7±3.5 years. The average body weight of the subjects was 58±34.6 lb. The average number of lesions per subject was 43.7±24.2.
The plasma concentration of cantharidin for all subjects was less than 3.3 ng/ml at all times sampled.

SMILES: C[C@@]12C(=O)OC(=O)[C@]1(C)[C@H]1CC[C@@H]2O1 [cantharidin]
- plasma concentration of cantharidin for all subjects at all times sampled (all seventeen subjects, 2, 6 and 24 hours post-application, composition of Table 9, topical): less than 3.3 ng/ml
- Exposure (plasma cantharidin per individual subject, cantharidin composition of Table 9 applied topically to Molluscum contagiosum lesions, blood collected Day 1 at 2, 6 and 24 hours post-application, lower limit of quantification 2.5 ng/ml): <2.5 ng/ml (16×) and 3.3 ng/ml
- plasma concentration of cantharidin below the lower limit of quantification (subjects as young as 2 years old, having over 100 lesions, having genital lesions, with as many as 2.26 lesions per lb, LLOQ 2.5 ng/ml, only one of seventeen subjects above LLOQ): < 2.5 ng/mL
